Assays:
Assay in all cases: relative viability (nuclei count vs DMSO), 5 days (fraction); higher = more cells survive
Bexarotene + Navitoclax = compound: C=C(c1ccc(C(=O)O)cc1)c1cc2c(cc1C)C(C)(C)CCC2(C)C [Bexarotene] + CC1(C)CCC(c2ccc(Cl)cc2)=C(CN2CCN(c3ccc(C(=O)NS(=O)(=O)c4ccc(N[C@H](CCN5CCOCC5)CSc5ccccc5)c(S(=O)(=O)C(F)(F)F)c4)cc3)CC2)C1 [Navitoclax] (partner 0.5 µM)
How it was run: (§1)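 After 5 days of treatment, lung cancer cells in 1536-well plates were fixed and stained in a single step (final 0.05% Triton X-100, 1% formaldehyde, 1 ug/ml Hoechst) and their nuclei counted on 4× images. Treatment had been applied by pin tool the day after seeding as one drug alone or as a fixed anchor-drug dose with five library-drug doses (not always all listed) in √10 steps. Relative viability is the nuclei count of treated wells divided by that of vehicle wells, and values are medians of duplicate plates.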

Bexarotene + Tozasertib = compound: C=C(c1ccc(C(=O)O)cc1)c1cc2c(cc1C)C(C)(C)CCC2(C)C [Bexarotene] + Cc1cc(Nc2cc(N3CCN(C)CC3)nc(Sc3ccc(NC(=O)C4CC4)cc3)n2)n[nH]1 [Tozasertib] (partner 0.1 µM)
How it was run: as §1

Bexarotene + Vorinostat = compound: C=C(c1ccc(C(=O)O)cc1)c1cc2c(cc1C)C(C)(C)CCC2(C)C [Bexarotene] + O=C(CCCCCCC(=O)Nc1ccccc1)NO [Vorinostat] (partner 1 µM)
How it was run: as §1

Bexarotene + Crizotinib = compound: C=C(c1ccc(C(=O)O)cc1)c1cc2c(cc1C)C(C)(C)CCC2(C)C [Bexarotene] + C[C@@H](Oc1cc(-c2cnn(C3CCNCC3)c2)cnc1N)c1c(Cl)ccc(F)c1Cl [Crizotinib] (partner 1 µM)
How it was run: as §1

Row | Cell Line | relative viability (Bexarotene + Navitoclax; first compound 0.08 µM) | relative viability (Bexarotene + Navitoclax; first compound 0.253 µM) | relative viability (Bexarotene + Navitoclax; first compound 0.8 µM) | relative viability (Bexarotene + Navitoclax; first compound 2.53 µM) | relative viability (Bexarotene + Navitoclax; first compound 8 µM) | relative viability (Bexarotene + Tozasertib; first compound 0.08 µM) | relative viability (Bexarotene + Tozasertib; first compound 0.253 µM) | relative viability (Bexarotene + Tozasertib; first compound 0.8 µM) | relative viability (Bexarotene + Tozasertib; first compound 2.53 µM) | relative viability (Bexarotene + Tozasertib; first compound 8 µM) | relative viability (Bexarotene + Vorinostat; first compound 0.08 µM) | relative viability (Bexarotene + Vorinostat; first compound 0.253 µM) | relative viability (Bexarotene + Vorinostat; first compound 0.8 µM) | relative viability (Bexarotene + Vorinostat; first compound 2.53 µM) | relative viability (Bexarotene + Vorinostat; first compound 8 µM) | relative viability (Bexarotene + Crizotinib; first compound 0.08 µM) | relative viability (Bexarotene + Crizotinib; first compound 0.253 µM) | relative viability (Bexarotene + Crizotinib; first compound 0.8 µM) | relative viability (Bexarotene + Crizotinib; first compound 2.53 µM) | relative viability (Bexarotene + Crizotinib; first compound 8 µM)
1 | NCI-H1734 | 0.804 | 0.877 | 0.795 | 0.781 | 0.815 | 0.281 | 0.244 | 0.26 | 0.285 | 0.257 | 0.779 | 0.834 | 0.808 | 0.65 | 0.657 | 0.724 | 0.77 | 0.65 | 0.667 | 0.646
2 | NCI-H2228 | 0.822 | 0.71 | 0.455 | 0.931 | 0.721 | 0.241 | 0.262 | 0.226 | 0.205 | 0.229 | 0.784 | 0.691 | 0.787 | 0.665 | 0.887 | 0.512 | 0.462 | 0.374 | 0.356 | 0.458
3 | COR-L23 | 0.98 | 1.12 | 0.847 | 0.916 | 0.879 | 0.242 | 0.238 | 0.238 | 0.204 | 0.219 | 0.54 | 0.539 | 0.411 | 0.426 | 0.337 | 0.747 | 0.633 | 0.605 | 0.498 | 0.558
4 | NCI-H1993 | 1.11 | 1.03 | 0.878 | 0.924 | 0.841 | 0.544 | 0.576 | 0.604 | 0.527 | 0.613 | 0.851 | 0.691 | 0.783 | 0.716 | 0.672 | 0.926 | 0.751 | 0.71 | 0.831 | 0.746
5 | NCI-H1437 | 1.08 | 1.15 | 1.06 | 1.07 | 0.953 | 0.382 | 0.395 | 0.396 | 0.421 | 0.382 | 0.814 | 1.01 | 0.886 | 0.872 | 0.84 | 0.92 | 0.959 | 0.918 | 0.922 | 0.909
6 | UMC-11 | 0.347 | 0.268 | 0.306 | 0.305 | 0.284 | 0.224 | 0.202 | 0.202 | 0.21 | 0.221 | 0.357 | 0.379 | 0.408 | 0.377 | 0.346 | 0.546 | 0.684 | 0.537 | 0.572 | 0.587
7 | 201T | 1.22 | 1.21 | 1.23 | 1.2 | 1.12 | 0.926 | 0.86 | 0.891 | 0.92 | 0.808 | 1.03 | 0.997 | 0.894 | 0.888 | 0.802 | 0.994 | 0.882 | 0.974 | 0.958 | 0.982
8 | ChaGo-K-1 | 0.98 | 0.987 | 1.07 |  | 0.991 | 0.259 | 0.234 | 0.264 | 0.223 | 0.223 | 0.848 | 0.886 | 0.844 | 0.818 | 0.918 | 1.19 | 1.23 | 1.15 |  | 1.15
9 | NCI-H1650 | 1.37 | 1.4 | 1.34 | 1.21 | 1.3 | 0.483 | 0.541 | 0.55 | 0.397 | 0.419 | 0.524 | 0.548 | 0.579 | 0.676 | 0.736 | 0.842 | 0.927 | 0.788 | 1.04 | 0.777
10 | LOU-NH91 | 0.608 | 0.637 | 0.502 | 0.597 | 0.512 | 0.643 | 0.624 | 0.665 | 0.637 | 0.598 | 0.973 | 0.956 | 0.933 | 0.836 | 0.849 | 0.767 | 0.73 | 0.696 | 0.686 | 0.639
11 | HOP-62 | 1.02 | 1.07 | 1.26 | 1.01 | 1.17 | 0.352 | 0.366 | 0.408 | 0.391 | 0.363 | 0.808 | 0.831 | 0.709 | 0.555 | 0.624 | 1.18 | 0.915 | 0.953 | 1.09 | 0.944
12 | NCI-H1915 | 0.846 | 0.792 | 0.834 | 0.77 | 0.728 | 0.465 | 0.492 | 0.425 | 0.339 | 0.376 | 0.544 | 0.579 | 0.482 | 0.513 | 0.513 | 0.969 | 0.948 | 0.851 | 0.905 | 0.849
13 | NCI-H3122 | 1.12 | 1.11 | 1.1 | 1.01 | 1.09 | 0.431 | 0.492 | 0.425 | 0.471 | 0.476 | 1.17 | 1 | 1.01 | 1.12 | 1.11 | 0.238 | 0.261 | 0.233 | 0.276 | 0.337
14 | NCI-H1651 | 1.1 | 1.09 | 1.11 | 1.22 | 0.925 | 0.929 | 0.64 | 0.741 | 0.594 | 0.791 | 0.693 | 0.604 | 0.62 | 0.602 | 0.608 | 0.936 | 0.89 | 0.952 | 0.968 | 0.893
15 | NCI-H838 | 1.13 | 1.33 | 1.23 | 1.32 | 1.22 | 0.269 | 0.301 | 0.267 | 0.278 | 0.271 | 0.764 | 0.767 | 0.742 | 0.585 | 0.693 | 0.929 | 0.884 | 0.891 | 0.843 | 0.866
16 | NCI-H596 | 1.02 | 0.85 | 0.707 | 0.973 | 0.829 | 0.998 | 0.897 | 0.788 | 0.934 | 0.837 | 0.655 | 0.69 | 0.414 | 0.533 | 0.602 | 1.05 | 1.01 | 0.871 | 0.973 | 1.05
